Settings: in ethyl acetate

CCCCCOC(=O)Nc1nc(=O)n([C@@H]2O[C@H](C)[C@@H](O)[C@H]2O)cc1F
Settings	solubility (mole fraction)
278.15 K	0.003
283.15 K	0.0039
288.15 K	0.0052
293.15 K	0.00678
298.15 K	0.00919
303.15 K	0.0112
308.15 K	0.0149
313.15 K	0.019
318.15 K	0.0237
323.15 K	0.0301

Source: BigSolDB 2.1
